This note sets out measurements from article PMC10745061 (Marine Drugs, 2023).

One test relates to E. coli MDR CI 1057. Conditions: Mueller–Hinton broth supplemented with 0.9% NaCl, 37 °C. As for the experimental part: Resistance induction experiments were performed using the previously described method. Briefly, on day one, the overnight culture of wild-type bacteria was diluted with the 2× MH broth supplemented with 1.8% NaCl to reach a final cell concentration of 10^6 CFU/mL.

The test system of test [1] is E. coli strains with the MCR-1-mediated colistin resistance. Description: MIC against strains with MCR-1-mediated colistin resistance. The class given is cell-based, Escherichia coli. Conditions: two strains with MCR-1-mediated colistin resistance; medium not stated. The text has this:
The results were expressed as the median values determined on the basis of at least three independent experiments performed in triplicate.

For the substance polymyxin B [reference compound], the “Initial MIC value before resistance selection” value with E. coli MDR CI 1057 was 0.125 µM. The “MIC against MCR-1 colistin-resistant strains” value in test [1] was 2 µM.
